Test results from US7964613B2 (Asahi Kasei Pharma Corporation, priority 2007, dated 2011).

What was measured:
hippocampus nerve cells = experiment: Effect of neurite outgrowth; format: cell-based, Wistar rat; details: 22 hours
Protocol: A Lab-Tek culture slide (4-well) was coated with poly-L-lysine (Sigma). A pregnant Wistar rat was used, and anesthetized with ether on day 18 of gestation. Then, a rat fetus was taken out from the rat, and the hippocampus was extracted from the brain of the fetus, put into a phosphate buffered physiological saline containing 0.1% trypsin, and incubated at 37° C. for 10 minutes. The hippocampus precipitated by centrifugation was ground in a medium containing 10% heat-inactivated fetal bovine serum by using a pipet to obtain hippocampus nerve cells. The cells were finally suspended in a medium containing B27 Supplement (Gibco), and plated on the preliminarily coated Lab-Tek culture slide at a density of 50,000 cells/well. After adhesion of the cells (about 2 hours), a drug was added at a desired concentration, and the slide was further incubated at 37° C. for 22 hours under 5% CO2. […]
After the incubation, the cells were fixed with 4% paraformaldehyde, and immunostained by using rabbit anti-beta-III-tubulin antibodies (Covance). Images of the nerve cells were captured into a computer by using a digital camera (DP-70, Olympus) installed in a fluorescence microscope (Olympus). Images of 20 to 30 of arbitrary sites on the slide were captured, and lengths of the axial fivers of 200 to 300 nerve cells were measured by using NIH imaging software for each drug. […]

intraocular pressure [1] = experiment: Rabbit intraocular pressure reduction enhancing action, Test Example 7-1 (combination use); format: in vivo, Japanese white rabbit; details: 19-1 compound 0.01 weight % aqueous solution 50 μL, left-right eye difference at 2, 4, 6 hours, six rabbits
Protocol: However, the effect is not limited to the 19-1 compound, and the ophthalmic solution concentration of the 19-1 compound is not limited to those used in this test example. Moreover, as for the test compound used for combination use, similar effect can be obtained also with the compounds of the present invention represented with the example numbers mentioned in Test Example 3.
As a test compound, the 19-1 compound was dissolved in physiological saline, and the solution was neutralized by addition of sodium hydroxide (pH 7.0 to 8.0) to prepare a 0.01 weight % aqueous solution (19-1 compound aqueous solution). As the drugs for combination use, isopropyl unoprostone (trade name: Rescula, Santen Pharmaceutical) was used as a prostaglandin-related drug, and brinzolamide hydrochloride (trade name: Azopt, Alcon Japan) was used as […], as the marketed formulations as they were.
A Japanese white rabbit having a body weight of about 2 kg was placed in a positioner and naturalized for one week before the experiment. An opthalmologic local anesthesant (Benoxil) was administered to both eyes, and then intraocular pressure before instillation was measured by using a tonometer (Classic 30, Solan). A test aqueous solution or the drug for combination use was administered to the left eye, and the right eye was not treated (control eye). The test groups consisted of (1) control group, (2) group instilled only with the 19-1 compound aqueous solution (single drug group 1), (3) group instilled only with the drug for combination use (single drug group 2), and (4) group instilled with the drug for combination use and the 19-1 compound aqueous solution (combination use group), and six rabbits were used for each group. As for the rabbits of these groups, 50 μL of physiological saline was first instilled to the control group, single drug group 1, and single drug group 2, and the drug for combination use was first instilled in the same volume to the combination use group. […] The intraocular pressure thereafter was measured for each group 2, 4 and 6 hours after the second administration of the test compound, and the difference of the measured values for the left and right eyes at each measurement time was considered an intraocular pressure reduction value of each group. The largest difference of the intraocular pressure values for the left and right eyes among those of the measured values of the measurement times was considered the maximum intraocular pressure reduction value (max ? IOP) of each drug group.

intraocular pressure [2] = experiment: Rabbit intraocular pressure reduction enhancing action, Test Example 7-2 (combination use with timolol maleate); format: in vivo, Japanese white rabbit; details: Table 6; 19-1 compound 0.01 weight % aqueous solution 50 μL, Timoptol 50 μL; difference relative to control group at 1, 2, 4 hours; 12 rabbits
Protocol: As a test compound, the 19-1 compound was dissolved in physiological saline, and the solution was neutralized by addition of sodium hydroxide (pH 7.0 to 8.0) to prepare a 0.01 weight % aqueous solution (19-1 compound aqueous solution). As a drug for combination use, timolol maleate (trade name: Timoptol, Santen Pharmaceutical) was used as an adrenergic receptor β blocker, as the marketed formulation as it was.
A Japanese white rabbit having a body weight of about 2 kg was placed in a positioner and naturalized for one week before the experiment. An opthalmologic local anesthesant (Benoxil) was administered to both eyes, and then intraocular pressure before instillation was measured by using a tonometer (Classic 30, Solan). […] The intraocular pressure thereafter was measured for each group 1, 2 and 4 hours after the second administration of the test compound, and the difference of the measured values at each measurement time for the each group and the control group was considered an intraocular pressure reduction value of each group. The largest difference of the intraocular pressure values relative to the control group among those of the measured values of the measurement times was considered the maximum intraocular pressure reduction value (max ? IOP) of each drug group.

SMILES	neurites extended compared with non-treated nerve cells (hippocampus nerve cells; concentration of 1 μM)	neurites extended compared with non-treated nerve cells (hippocampus nerve cells; concentration of 10 μM)	Max IOP (maximum intraocular pressure reduction value) (intraocular pressure [1]; Table 4, Azopt 50 μL)	Max IOP (maximum intraocular pressure reduction value) (intraocular pressure [1]; Table 5, Rescula 50 μL)	Max IOP (maximum intraocular pressure reduction value) (intraocular pressure [2])
CN[C@H]1CCN(S(=O)(=O)c2cccc3c(O)ncc(Cl)c23)C1 [Example 36-1, (S)-1-(1-Hydroxy-4-chloro-5-isoquinolinesulfonyl)-3-(methylamino)pyrrolidine]	28%	43%			
N[C@H]1CCN(S(=O)(=O)c2cccc3cncc(Cl)c23)C1 [Example 19-1, (S)-3-Amino-1-(4-chloro-5-isoquinolinesulfonyl)pyrrolidine]			4.3 mmHg	4.3 mmHg	4.1 mmHg
